Reference: PubChem BioAssay (NCI)
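48-hour exposure; five concentrations; linearly interpolated endpoints. GI50 marks 50% less growth. TGI: total growth inhibition.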

Columns and labels:
Assay in all cases: NCI-60 cell line screen, 48 h
KM12 colon = test system: KM12 colon
NCI-H226 lung = test system: NCI-H226 lung
SF-539 CNS = test system: SF-539 CNS
HCT-116 colon = test system: HCT-116 colon
HOP-62 NSCLC = test system: HOP-62 NSCLC
MDA-MB-231 breast = test system: MDA-MB-231 breast
UO-31 renal = test system: UO-31 renal
SR leukemia = test system: SR leukemia
SK-MEL-5 melanoma = test system: SK-MEL-5 melanoma
HT29 colon = test system: HT29 colon
OVCAR-5 ovarian = test system: OVCAR-5 ovarian
SF-268 CNS = test system: SF-268 CNS
NCI/ADR-RES ovarian = test system: NCI/ADR-RES ovarian
HS 578T breast = test system: HS 578T breast
MALME-3M melanoma = test system: MALME-3M melanoma
T-47D breast = test system: T-47D breast
COLO 205 colon = test system: COLO 205 colon
MOLT-4 leukemia = test system: MOLT-4 leukemia
SK-MEL-28 melanoma = test system: SK-MEL-28 melanoma
PC-3 prostate = test system: PC-3 prostate
MDA-MB-435 = test system: MDA-MB-435
SW-620 colon = test system: SW-620 colon
U251 CNS = test system: U251 CNS
DU-145 prostate = test system: DU-145 prostate
NCI-H23 lung = test system: NCI-H23 lung
OVCAR-8 ovarian = test system: OVCAR-8 ovarian
RPMI-8226 leukemia = test system: RPMI-8226 leukemia
A549 NSCLC = test system: A549 NSCLC
OVCAR-4 ovarian = test system: OVCAR-4 ovarian
SF-295 CNS = test system: SF-295 CNS
LOX IMVI melanoma = test system: LOX IMVI melanoma
UACC-62 melanoma = test system: UACC-62 melanoma
HL-60(TB) leukemia = test system: HL-60(TB) leukemia
TK-10 renal = test system: TK-10 renal
SNB-75 CNS = test system: SNB-75 CNS
A498 renal = test system: A498 renal
IGROV1 ovarian = test system: IGROV1 ovarian
CCRF-CEM leukemia = test system: CCRF-CEM leukemia
RXF 393 renal = test system: RXF 393 renal
M14 melanoma = test system: M14 melanoma
HCC-2998 colon = test system: HCC-2998 colon
EKVX NSCLC = test system: EKVX NSCLC
NCI-H460 lung = test system: NCI-H460 lung
786-0 renal = test system: 786-0 renal
OVCAR-3 ovarian = test system: OVCAR-3 ovarian
K-562 leukemia = test system: K-562 leukemia
HCT-15 colon = test system: HCT-15 colon
HOP-92 NSCLC = test system: HOP-92 NSCLC
BT-549 breast = test system: BT-549 breast
SK-MEL-2 melanoma = test system: SK-MEL-2 melanoma
CAKI-1 renal = test system: CAKI-1 renal
MCF7 breast = test system: MCF7 breast
SK-OV-3 ovarian = test system: SK-OV-3 ovarian
ACHN renal = test system: ACHN renal
SN12C renal = test system: SN12C renal
UACC-257 melanoma = test system: UACC-257 melanoma
SNB-19 CNS = test system: SNB-19 CNS

Question: What does the source list for `O=C(Nc1ccccc1)Nc1nc2ccc([N+](=O)[O-])cc2s1`?
Answer: GI50 (KM12 colon): 1770 nM; TGI (KM12 colon): 10600 nM; GI50 (NCI-H226 lung): 1370 nM; TGI (NCI-H226 lung): 4300 nM; GI50 (SF-539 CNS): 2120 nM; TGI (SF-539 CNS): 10400 nM; GI50 (HCT-116 colon): 2220 nM; TGI (HCT-116 colon): 10100 nM; GI50 (HOP-62 NSCLC): 2930 nM; TGI (HOP-62 NSCLC): 11500 nM; GI50 (MDA-MB-231 breast): 1820 nM; TGI (MDA-MB-231 breast): 4560 nM; GI50 (UO-31 renal): 1560 nM; TGI (UO-31 renal): 11500 nM; GI50 (SR leukemia): 746 nM; TGI (SR leukemia): 4170 nM; GI50 (SK-MEL-5 melanoma): 471 nM; TGI (SK-MEL-5 melanoma): 1750 nM; GI50 (HT29 colon): 3460 nM; TGI (HT29 colon): 12100 nM; GI50 (OVCAR-5 ovarian): 4330 nM; TGI (OVCAR-5 ovarian): 17400 nM; GI50 (SF-268 CNS): 2650 nM; TGI (SF-268 CNS): 13300 nM; GI50 (NCI/ADR-RES ovarian): 1790 nM; TGI (NCI/ADR-RES ovarian): 8310 nM; GI50 (HS 578T breast): 2720 nM; TGI (HS 578T breast): 12400 nM; GI50 (MALME-3M melanoma): 751 nM; TGI (MALME-3M melanoma): 7710 nM; GI50 (T-47D breast): 533 nM; TGI (T-47D breast): 9770 nM; GI50 (COLO 205 colon): 2050 nM; TGI (COLO 205 colon): 4380 nM; GI50 (MOLT-4 leukemia): 1960 nM; TGI (MOLT-4 leukemia): 7140 nM; GI50 (SK-MEL-28 melanoma): 2450 nM; TGI (SK-MEL-28 melanoma): 12100 nM; GI50 (PC-3 prostate): 1690 nM; TGI (PC-3 prostate): 9890 nM; GI50 (MDA-MB-435): 2160 nM; TGI (MDA-MB-435): 9740 nM; GI50 (SW-620 colon): 2970 nM; TGI (SW-620 colon): 12700 nM; GI50 (U251 CNS): 1970 nM; TGI (U251 CNS): 12900 nM; GI50 (DU-145 prostate): 3330 nM; TGI (DU-145 prostate): 16700 nM; GI50 (NCI-H23 lung): 649 nM; TGI (NCI-H23 lung): 3570 nM; GI50 (OVCAR-8 ovarian): 2800 nM; TGI (OVCAR-8 ovarian): 14500 nM; GI50 (RPMI-8226 leukemia): 690 nM; TGI (RPMI-8226 leukemia): 3470 nM; GI50 (A549 NSCLC): 2530 nM; TGI (A549 NSCLC): 14400 nM; GI50 (OVCAR-4 ovarian): 1310 nM; TGI (OVCAR-4 ovarian): 12400 nM; GI50 (SF-295 CNS): 1230 nM; TGI (SF-295 CNS): 3110 nM; GI50 (LOX IMVI melanoma): 1220 nM; TGI (LOX IMVI melanoma): 3680 nM; GI50 (UACC-62 melanoma): 860 nM; TGI (UACC-62 melanoma): 8130 nM; GI50 (HL-60(TB) leukemia): 1460 nM; TGI (HL-60(TB) leukemia): 3570 nM; GI50 (TK-10 renal): 2830 nM; TGI (TK-10 renal): 10700 nM; GI50 (SNB-75 CNS): 1870 nM; TGI (SNB-75 CNS): 5740 nM; GI50 (A498 renal): 254 nM; TGI (A498 renal): 1710 nM; GI50 (IGROV1 ovarian): 2490 nM; TGI (IGROV1 ovarian): 14900 nM; GI50 (CCRF-CEM leukemia): 1290 nM; TGI (CCRF-CEM leukemia): 13100 nM; GI50 (RXF 393 renal): 548 nM; TGI (RXF 393 renal): 3020 nM; GI50 (M14 melanoma): 2640 nM; TGI (M14 melanoma): 8480 nM; GI50 (HCC-2998 colon): 1380 nM; TGI (HCC-2998 colon): 9090 nM; GI50 (EKVX NSCLC): 1950 nM; TGI (EKVX NSCLC): 11900 nM; GI50 (NCI-H460 lung): 2060 nM; TGI (NCI-H460 lung): 10500 nM; GI50 (786-0 renal): 2410 nM; TGI (786-0 renal): 9940 nM; GI50 (OVCAR-3 ovarian): 1910 nM; TGI (OVCAR-3 ovarian): 11600 nM; GI50 (K-562 leukemia): 1470 nM; TGI (K-562 leukemia): 10800 nM; GI50 (HCT-15 colon): 1650 nM; TGI (HCT-15 colon): 10500 nM; GI50 (HOP-92 NSCLC): 324 nM; TGI (HOP-92 NSCLC): 2610 nM; GI50 (BT-549 breast): 2020 nM; TGI (BT-549 breast): 6500 nM; GI50 (SK-MEL-2 melanoma): 1690 nM; TGI (SK-MEL-2 melanoma): 5150 nM; GI50 (CAKI-1 renal): 1620 nM; TGI (CAKI-1 renal): 7910 nM; GI50 (MCF7 breast): 1420 nM; TGI (MCF7 breast): 10800 nM; GI50 (SK-OV-3 ovarian): 2330 nM; TGI (SK-OV-3 ovarian): 9580 nM; GI50 (ACHN renal): 2040 nM; TGI (ACHN renal): 10200 nM; GI50 (SN12C renal): 1580 nM; TGI (SN12C renal): 6790 nM; GI50 (UACC-257 melanoma): 1490 nM; TGI (UACC-257 melanoma): 7700 nM; GI50 (SNB-19 CNS): 1740 nM; TGI (SNB-19 CNS): 12900 nM
